The values that follow come from patent US20090088377A1, “CYSTEIC ACID DERIVATIVES OF ANTI-VIRAL PEPTIDES” (priority 2007, published 2009).

In test [1] the test system is HIV-1 IIIB. Briefly: Anti-HIV efficacy evaluation in fresh human PBMCs (albumin conjugates vs original peptides). In kind it is cell-based. As to conditions: NA = IC50 not achieved. How it is done:
HIV-1 IIIB was obtained through the AIDS Research and Reference Reagent Program, Division of AIDS, NIAID, NIH courtesy of Dr. Robert C. […] Fresh human peripheral blood mononuclear cells (PBMCs), seronegative for HIV and HBV, were isolated from blood of screened donors (Biological Specialty Corporation; Colmar, Pa.) using Lymphocyte Separation Medium (LSM; Cellgro® by Mediatech, Inc.; density 1.078+/−0.002 g/ml) following the manufacturer's instructions. Cells were stimulated by incubation in 4 μg/mL Phytohemagglutinin (PHA; Sigma) for 48-72 hours. Mitogenic stimulation was maintained by the addition of 20 U/mL recombinant human IL-2 (R&D Systems, Inc) to the culture medium. PHA-stimulated PBMCs from at least two donors were pooled, diluted in fresh medium and added to 96-well plates at 5×10^4 cells/well. Cells were infected (final MOI≅0.1) in the presence of 9 different concentrations of test compounds (triplicate wells/concentration) and incubated for 7 days. […] Following removal of supernatant samples, compound cytotoxicity was measured by the addition of 3-(4,5-dimethylthiazol-2-yl)-5-(3-carboxymethoxyphenyl)-2-(4-sulfophenyl)-2H-tetrazolium (MTS; CellTiter 96 Reagent, Promega) following the manufacturer's instructions. […] AZT (nucleoside reverse transcriptase inhibitor) was used as the assay control compound.

Test [2] addresses HIV-1 transmembrane glycoprotein gp41 (strain HIV-1 IIIB) (HIV-1 strain IIIB) (UniProt P04578). Kind of test: cell-based or functional assay.
Test [3] has as its system HPIV-3. To be noted: HPIV-3-infected Hep2 cells and uninfected CV-1W cells; cited from earlier work.
The subject of test [4] is RSV. As to conditions: RSV-infected and uninfected Hep-2 cells; cited from earlier work.
In test [5] the test system is NL4-3 with DIV (G36D) mutation in gp41. To be noted: NL4-3, in vitro; cited from earlier work.
Setting [6] is: HIV-1 IIIB in PHA-stimulated PBMCs, 7 days.

As for `Cc1cn([C@H]2C[C@H](N=[N+]=[N-])[C@@H](CO)O2)c(=O)[nH]c1=O` [AZT], in test [1] (setting [6]), half-maximal inhibition (IC50) was put at 2.9 nM and it took 26.9 nM to reach the 90% level (IC90). For the same molecule, in test [1] (from TC50 (MTS) and IC50 in PBMCs), the “Selectivity Index” value is over 346.

On to “T-20 (DP-178, enfuvirtide, Fuzeon) (peptide)”, for which, in test [2], the IC50 (50% inhibition of virus replication), HIV-1 IIIB in PBMC is 2.2 nM and the IC90 (90% inhibition of virus replication), HIV-1 IIIB in PBMC worked out at 9.5 nM.

Take C34 peptide: in test [2], the IC50 (50% inhibition of virus replication), HIV-1 IIIB in PBMC is 0.6 nM.

Take “NSVALDPIDISIELNKAKSDLEESKEWIRRSNQKL [SEQ ID NO:27]”: the “Concentration inhibiting fusion and syncytia formation” value in test [3] is “less than 1 μg/ml”.

“IALLSTNKAVVSLSNGVSVLTSKVLDLKNYIDK [SEQ ID NO:24]”: the “Concentration inhibiting fusion and syncytia formation” value in test [4] was “less than 50 μg/ml”.

For the molecule enfuvirtide, in test [5], the “Resistance conferred by the DIV (G36D) mutation in gp41” value is 8 fold.
